According to patent US10829520B2, “Beta-hairpin peptidomimetics” (POLYPHOR AG, priority 2015, dated 2020):
Where a SMILES comes first, the peptide text is derived from it. Bridges are numbered along the chain shown (N, C = ends). Roman numbers before positions name the chains, in order. [ ]: non-standard residue; d: D form. NMeW = CN[C@@H](Cc1c[nH]c2ccccc12)C(=O)O; Tle = CC(C)(C)[C@H](N)C(=O)O; dDab = NCC[C@@H](N)C(=O)O; Nle = CCCC[C@H](N)C(=O)O; Orn = NCCC[C@H](N)C(=O)O; Dab = NCC[C@H](N)C(=O)O; Dap = NC[C@H](N)C(=O)O; Aib = CC(C)(N)C(=O)O; Sar = CNCC(=O)O

What was measured:
Assay type in all cases: cell-based
[1] = test system: Acinetobacter baumannii 872842; conditions: 872842
[2] = test system: Acinetobacter baumannii DSM 30008; conditions: DSM 30008
Outline: (§1)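 Minimal inhibitory concentrations were recorded in μg/mL after the strains grew 18-20 hours at 35° C with two-fold serial peptide dilutions. The medium was Mueller-Hinton II (cation-adjusted) with 0.002% Polysorbate 80, and the inoculum was about 10^6 CFU/mL.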

Escherichia coli 926415 = conditions: 926415
[3] = test system: Escherichia coli ATCC 25922; conditions: ATCC 25922
Outline: as §1

[4] = test system: Klebsiella pneumoniae 968733; conditions: 968733
[5] = test system: Klebsiella pneumoniae SSI #3010; conditions: SSI #3010
Outline: as §1

[6] = test system: Pseudomonas aeruginosa ATCC 27853; conditions: ATCC 27853
Outline: as §1

[7] = test system: human red blood cells (hRBC); experiment: Hemolysis of human red blood cells; conditions: red cells of human, 1 h
Outline: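 Each peptide was tested at a single concentration, 100 μg/mL. Erythrocytes (20% v/v) were incubated 1 h at 37° C. under shaking at 300 rpm, centrifuged, and released hemoglobin measured at OD540. Controls were PBS containing 0.001% acetic acid (0%) and Triton X-100 (100%).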

SMILES | Acinetobacter baumannii 872842 MIC [1] [µg/mL] | Acinetobacter baumannii DSM 30008 MIC [2] [µg/mL] | Escherichia coli 926415 MIC (Escherichia coli 926415) [µg/mL] | Escherichia coli ATCC 25922 MIC [3] [µg/mL] | Klebsiella pneumoniae 968733 MIC [4] [µg/mL] | Klebsiella pneumoniae SSI #3010 MIC [5] [µg/mL] | Pseudomonas aeruginosa ATCC 27853 MIC [6] [µg/mL] | Hemolysis at 100 μg/mL ([7]; 100 μg/mL) [%] | Hemolysis at 100 μg/mL [7]; 100 [%]
CC(=O)N[C@@H](Cc1c[nH]c2ccccc12)C(=O)N[C@H]1CSSC[C@@H](C(=O)N[C@@H](CCCN)C(=O)N[C@H](C(=O)N[C@@H](CCN)C(=O)N[C@@H](CCN)C(=O)N[C@H]2CCNC(=O)[C@H]([C@@H](C)O)NC(=O)[C@H](CCN)NC(=O)[C@H](CCN)NC(=O)[C@H](CC(C)C)NC(=O)[C@@H](Cc3ccccc3)NC(=O)[C@H](CCN)NC2=O)[C@@H](C)O)NC(=O)[C@H](Cc2ccc(O)cc2)NC(=O)[C@H](Cc2c[nH]cn2)NC(=O)[C@H](Cc2c[nH]c3ccccc23)NC(=O)[C@@H]2CCCN2C(=O)[C@H]2CCCN2C(=O)[C@H](CO)NC(=O)[C@H](C)NC(=O)[C@H](C(C)(C)C)NC1=O [Ex. 138] (Ac-WC[Tle]AS[dP]PWHYC[Orn]T[Dab][Dab][Dab][Dab][dF]L[Dab][Dab]T; disulfide 2-11; lactam 16-C) | 1 | 0.5 | 4 | 0.25 | 2 | 0.5 | 4 | 3 | 
CC(C)C[C@@H]1NC(=O)[C@@H](CC(C)C)NC(=O)[C@H](CCN)NC(=O)[C@@H](NC(=O)[C@H](CCN)NC(=O)[C@@H](NC(=O)[C@H](CCN)NC(=O)CC[C@@H]2NC(=O)[C@H](CCN)NC(=O)[C@H](Cc3ccc(O)cc3)NC(=O)[C@H](CO)NC(=O)[C@H](CC(C)C)NC(=O)[C@@H]3CCCN3C(=O)[C@H]3CCCN3C(=O)[C@H](CO)NC(=O)[C@H](Cc3ccc(O)cc3)NC(=O)[C@H](C(C)C)NC(=O)[C@H](CCN)NC(=O)[C@H](Cc3c[nH]c4ccccc34)NC(=O)[C@H](CCN)NC(=O)[C@@H](CCN)NC2=O)[C@@H](C)O)CCNC(=O)[C@H]([C@@H](C)O)NC(=O)[C@H](CCN)NC(=O)[C@H](CCN)NC1=O [Ex. 95] (I: cyclo(LSY[Dab]E[dDab][Dab]W[Dab]VYS[dP]P) / II: [Dab]T[Dab][Dab][Dab][dL]L[Dab][Dab]T; amide I:5-II:N; lactam II:4-II:C) | 1 | 0.5 | 1 | 0.25 | 1 | 0.5 | 0.5 |  | 1
CC(=O)N[C@@H](Cc1c[nH]c2ccccc12)C(=O)N[C@H]1CSSC[C@@H](C(=O)N[C@@H](CCCN)C(=O)N[C@H](C(=O)N[C@@H](CCN)C(=O)N[C@H]2CCNC(=O)[C@H]([C@@H](C)O)NC(=O)[C@H](CCN)NC(=O)[C@H](CCN)NC(=O)[C@H](CC(C)C)NC(=O)[C@@H](Cc3ccccc3)NC(=O)[C@H](CCN)NC2=O)[C@@H](C)O)NC(=O)[C@H](Cc2ccc(O)cc2)NC(=O)[C@H](CO)NC(=O)[C@H]([C@@H](C)O)NC(=O)[C@@H]2CCCN2C(=O)[C@H]2CCCN2C(=O)[C@H](CC(C)C)NC(=O)[C@H](C)NC(=O)[C@H](C(C)(C)C)NC1=O [Ex. 118] (Ac-WC[Tle]AL[dP]PTSYC[Orn]T[Dab][Dab][Dab][dF]L[Dab][Dab]T; disulfide 2-11; lactam 15-C) | 0.25 | 0.25 | 0.5 | 0.5 | 0.5 | 0.5 | 2 | 2 | 
CCCC[C@@H]1NC(=O)[C@@H]2CCCN2C(=O)[C@H]2CCCN2C(=O)[C@H](CO)NC(=O)[C@H](C)NC(=O)[C@H](C(C)(C)C)NC(=O)[C@H](CCN)NC(=O)[C@H](Cc2c[nH]c3ccccc23)NC(=O)[C@H](CCN)NC(=O)[C@@H](CCN)NC(=O)[C@H](CCC(=O)N[C@H](CCN)C(=O)N[C@H]2CCNC(=O)[C@H]([C@@H](C)O)NC(=O)[C@H](CCN)NC(=O)[C@H](CCN)NC(=O)[C@H](CC(C)C)NC(=O)[C@@H](CC(C)C)NC(=O)[C@H](CCN)NC2=O)NC(=O)[C@H](CCN)NC(=O)[C@H](Cc2ccc(O)cc2)NC(=O)[C@H](CO)NC1=O [Ex. 72] (I: cyclo(W[Dab][Tle]AS[dP]P[Nle]SY[Dab]E[dDab][Dab]) / II: [dDab][Dab][Dab][dL]L[Dab][Dab]T; amide I:12-II:N; lactam II:2-II:C) | 1 | 1 | 0.5 | 1 | 1 | 1 | 1 |  | <1
CC(C)C[C@@H]1NC(=O)[C@@H](CC(C)C)NC(=O)[C@H](CCN)NC(=O)[C@@H](NC(=O)[C@H](CCN)NC(=O)[C@@H](NC(=O)[C@H](CCN)NC(=O)CNC(=O)[C@@H]2CSSC[C@H](NC(=O)[C@@H](N)CC(C)C)C(=O)N[C@@H](C(C)C)C(=O)N[C@@H](C)C(=O)N[C@@H](Cc3ccc(O)cc3)C(=O)N[C@H](CCN)C(=O)N3CCC[C@H]3C(=O)N[C@@H](CC(C)C)C(=O)N[C@@H](CO)C(=O)N[C@@H](Cc3ccc(O)cc3)C(=O)N2)[C@@H](C)O)CCNC(=O)[C@H]([C@@H](C)O)NC(=O)[C@H](CCN)NC(=O)[C@H](CCN)NC1=O [Ex. 157] (H-LCVAY[dDab]PLSYCG[Dab]T[Dab][Dab][Dab][dL]L[Dab][Dab]T; disulfide 2-11; lactam 16-C) | 0.03125 | 0.0625 | 0.125 | 0.0625 | 1 | 0.125 | 0.5 | <1 | 
CN[C@@H](Cc1c[nH]c2ccccc12)C(=O)N[C@H]1CSSC[C@@H](C(=O)N(C)CC(=O)N[C@@H](CCN)C(=O)N[C@H](C(=O)N[C@@H](CCN)C(=O)N[C@H]2CCNC(=O)[C@H]([C@@H](C)O)NC(=O)[C@H](CCN)NC(=O)[C@H](CCN)NC(=O)[C@H](CC(C)C)NC(=O)[C@@H](CC(C)C)NC(=O)[C@H](CCN)NC2=O)[C@@H](C)O)NC(=O)[C@H](Cc2ccc(O)cc2)NC(=O)[C@H](CN)NC(=O)[C@H](CC(C)C)NC(=O)[C@@H]2CCCN2C(=O)[C@H]2CCCN2C(=O)[C@H](Cc2ccc(O)cc2)NC(=O)[C@H](C)NC(=O)[C@H](C(C)C)NC1=O [Ex. 143] (H-[NMeW]CVAY[dP]PL[Dap]YC[Sar][Dab]T[Dab][Dab][Dab][dL]L[Dab][Dab]T; disulfide 2-11; lactam 16-C) | 0.0625 | 0.0625 | 0.0625 | 0.03125 | 0.125 | 0.125 | 0.25 | <1 | 
CCCC[C@@H]1NC(=O)[C@@H]2CCCN2C(=O)[C@H]2CCCN2C(=O)[C@H](CO)NC(=O)[C@H](C)NC(=O)[C@H](C(C)(C)C)NC(=O)[C@@H](NC(=O)[C@H](Cc2c[nH]c3ccccc23)NC(=O)C(C)(C)N)CSSC[C@@H](C(=O)N[C@@H](CCN)C(=O)N[C@H](C(=O)N[C@@H](CCN)C(=O)N[C@H]2CCNC(=O)[C@H]([C@@H](C)O)NC(=O)[C@H](CCN)NC(=O)[C@H](CCN)NC(=O)[C@H](CC(C)C)NC(=O)[C@@H](Cc3ccccc3)NC(=O)[C@H](CCN)NC2=O)[C@@H](C)O)NC(=O)[C@H](Cc2ccc(O)cc2)NC(=O)[C@H](CO)NC1=O [Ex. 44] (H-[Aib]WC[Tle]AS[dP]P[Nle]SYC[Dab]T[Dab][Dab][Dab][dF]L[Dab][Dab]T; disulfide 3-12; lactam 16-C) | 0.5 | 0.125 | 0.25 | 0.125 | 2 | 0.25 | 0.25 | <1 | 
CCCC[C@@H]1NC(=O)[C@@H]2CCCN2C(=O)[C@H]2CCCN2C(=O)[C@H](CO)NC(=O)[C@H](C)NC(=O)[C@H](C(C)(C)C)NC(=O)[C@H](CCN)NC(=O)[C@H](Cc2c[nH]c3ccccc23)NC(=O)[C@H](CCN)NC(=O)[C@@H](CCN)NC(=O)[C@H](CCC(=O)N[C@@H](CCN)C(=O)N[C@H](C(=O)N[C@@H](CCN)C(=O)N[C@H]2CCNC(=O)[C@H]([C@@H](C)O)NC(=O)[C@H](CCN)NC(=O)[C@H](CCN)NC(=O)[C@H](CC(C)C)NC(=O)[C@@H](Cc3ccccc3)NC(=O)[C@H](CCN)NC2=O)[C@@H](C)O)NC(=O)[C@H](CCN)NC(=O)[C@H](Cc2ccc(O)cc2)NC(=O)[C@H](CO)NC1=O [Ex. 7] (I: cyclo(W[Dab][Tle]AS[dP]P[Nle]SY[Dab]E[dDab][Dab]) / II: [Dab]T[Dab][Dab][Dab][dF]L[Dab][Dab]T; amide I:12-II:N; lactam II:4-II:C) | 1 | 1 | 0.25 | 0.125 | 2 | 0.25 | 0.25 |  | 1
